Test systems include BT-549 breast; PC-3 prostate; OVCAR-5 ovarian; SR leukemia; ACHN renal; IGROV1 ovarian; SF-268 CNS; SK-MEL-2 melanoma; UACC-257 melanoma; SW-620 colon; RPMI-8226 leukemia; A549 NSCLC; OVCAR-4 ovarian; KM12 colon; DU-145 prostate; OVCAR-8 ovarian; HCT-116 colon; OVCAR-3 ovarian.
Holding throughout (experiment): growth of human tumour cells (NCI), 48 h

Consider twelve compounds from PubChem BioAssay (NCI).

The structures appear in SMILES notation.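 In this assay, cells in 96-well plates receive the compound at five concentrations for 48 hours. Endpoints are linearly interpolated between the surrounding concentrations. At the TGI there is no net growth.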

For `CCOC(=O)[C@@H]1CCN2CN(c3ccc(OC)cc3)N=C(c3ccccc3)[C@@]12c1ccccc1`, the TGI was 55.2 µM with BT-549 breast; more than 100 µM in the assay on PC-3 prostate; more than 100 µM with OVCAR-5 ovarian; more than 100 µM in the assay on SR leukemia; 91.5 µM in the assay on ACHN renal; 72.1 µM in the assay with IGROV1 ovarian. Besides, the TGI in the assay with SF-268 CNS was more than 100 µM; in the assay on SK-MEL-2 melanoma, 46.1 µM; in the assay with UACC-257 melanoma it was 49.7 µM; in the assay with SW-620 colon, more than 100 µM; in the assay on RPMI-8226 leukemia, 82.6 µM; in the assay on A549 NSCLC, more than 100 µM. The TGI in the assay on OVCAR-4 ovarian is more than 100 µM; in the assay on KM12 colon, more than 100 µM; in the assay with DU-145 prostate, 70.7 µM; with OVCAR-8 ovarian, 61.3 µM; with HCT-116 colon it was 40.2 µM.
`Cc1cc2nc(N3C(=O)/C(=C/c4ccccc4S)N=C3c3ccccc3)sc2cc1C`: the TGI was more than 100 µM in the assay on BT-549 breast; 58.1 µM in the assay with PC-3 prostate; more than 100 µM with OVCAR-5 ovarian; more than 100 µM in the assay with SR leukemia; more than 100 µM with ACHN renal; more than 100 µM with IGROV1 ovarian. Also, the TGI in the assay on SF-268 CNS was more than 100 µM; with OVCAR-3 ovarian, more than 100 µM; in the assay with SK-MEL-2 melanoma, 56.7 µM; in the assay on UACC-257 melanoma, more than 100 µM; with SW-620 colon, more than 100 µM; with RPMI-8226 leukemia, more than 100 µM. Moreover, the TGI is more than 100 µM in the assay on A549 NSCLC; more than 100 µM in the assay with OVCAR-4 ovarian; more than 100 µM with KM12 colon; more than 100 µM in the assay with DU-145 prostate; more than 100 µM in the assay on OVCAR-8 ovarian; 61.3 µM in the assay with HCT-116 colon.
Consider `CN(C)CCCNc1c(C#N)[n+]([O-])c2cc(Cl)ccc2[n+]1[O-]`, for which the TGI with BT-549 breast is 31.1 µM; in the assay with PC-3 prostate, more than 41.3 µM; with OVCAR-5 ovarian, more than 100 µM; in the assay on SR leukemia, 5.28 µM; with ACHN renal, 22.2 µM; with IGROV1 ovarian it was 10.5 µM. Also, the TGI in the assay with SF-268 CNS was more than 64.4 µM; with OVCAR-3 ovarian, more than 34.9 µM; in the assay on SK-MEL-2 melanoma it was 36.4 µM; in the assay with UACC-257 melanoma, more than 50 µM; in the assay on SW-620 colon, 37.1 µM; with RPMI-8226 leukemia it was 26.4 µM. Further, the TGI in the assay on A549 NSCLC is 31.5 µM; in the assay on OVCAR-4 ovarian it was 14.2 µM; in the assay with KM12 colon it was 26.9 µM; in the assay with DU-145 prostate, more than 100 µM; in the assay on OVCAR-8 ovarian, more than 51.3 µM; in the assay on HCT-116 colon, 30 µM.
For the compound `Nc1ncnc2c1ncn2C1OC(CO)C(O)C(O)C1O` (stereo unspecified), the TGI with BT-549 breast, with PC-3 prostate, in the assay on OVCAR-5 ovarian, in the assay with SR leukemia, in the assay with ACHN renal and in the assay with IGROV1 ovarian was more than 100 µM throughout. Moreover, the TGI with SF-268 CNS, with OVCAR-3 ovarian, in the assay on SK-MEL-2 melanoma, in the assay with UACC-257 melanoma, in the assay on SW-620 colon and in the assay on RPMI-8226 leukemia was more than 100 µM in each case. In addition, the TGI with A549 NSCLC, with OVCAR-4 ovarian, in the assay with KM12 colon, with DU-145 prostate, in the assay on OVCAR-8 ovarian and with HCT-116 colon was more than 100 µM in each case.
Turning to `O=C1C=CC2(O)OCCN(CCO)C2=C1` (stereo unspecified) (tested in a mixture with another compound), the TGI in the assay on BT-549 breast, in the assay with PC-3 prostate, in the assay with OVCAR-5 ovarian, in the assay with SR leukemia, in the assay with ACHN renal and in the assay on IGROV1 ovarian was more than 100 µM each time. Also, the TGI in the assay with SF-268 CNS, in the assay with OVCAR-3 ovarian, in the assay with SK-MEL-2 melanoma, in the assay on UACC-257 melanoma, in the assay on SW-620 colon and in the assay with RPMI-8226 leukemia was more than 100 µM in each case. Besides, the TGI in the assay on A549 NSCLC, in the assay on OVCAR-4 ovarian, in the assay with KM12 colon, in the assay with DU-145 prostate, in the assay on OVCAR-8 ovarian and in the assay on HCT-116 colon was more than 100 µM throughout.
In the case of `CCN(C(C)=O)c1cnc(/C=N/NC(N)=S)c2ccccc12`, the TGI with BT-549 breast was more than 31.1 µM; in the assay on PC-3 prostate it was more than 100 µM; with OVCAR-5 ovarian, more than 100 µM; in the assay with SR leukemia, more than 65.8 µM; in the assay with ACHN renal it was more than 22.4 µM; in the assay with IGROV1 ovarian, more than 100 µM. In addition, the TGI in the assay on SF-268 CNS, in the assay with OVCAR-3 ovarian, in the assay on SK-MEL-2 melanoma, in the assay on UACC-257 melanoma, with SW-620 colon and in the assay with RPMI-8226 leukemia was more than 100 µM in each case. In addition, the TGI in the assay with A549 NSCLC is more than 88.3 µM; in the assay with OVCAR-4 ovarian, more than 100 µM; with KM12 colon, more than 100 µM; in the assay on DU-145 prostate it was more than 25 µM; in the assay on OVCAR-8 ovarian, more than 34.6 µM; in the assay with HCT-116 colon, more than 100 µM.
For `COc1cc([C@H]2CC(=O)C[C@H](c3cc(OC)c(OC)c(OC)c3)C23C(=O)c2ccccc2C3=O)cc(OC)c1OC`, the TGI in the assay on BT-549 breast, with PC-3 prostate, in the assay with OVCAR-5 ovarian, with SR leukemia, in the assay with ACHN renal and in the assay on IGROV1 ovarian was more than 100 µM throughout. The TGI with SF-268 CNS, in the assay on OVCAR-3 ovarian, in the assay on SK-MEL-2 melanoma, in the assay with UACC-257 melanoma, with SW-620 colon and in the assay on RPMI-8226 leukemia was more than 100 µM throughout. The TGI is more than 100 µM with A549 NSCLC; more than 100 µM with KM12 colon; more than 100 µM in the assay on DU-145 prostate; more than 100 µM in the assay with OVCAR-8 ovarian; 63.7 µM in the assay with HCT-116 colon.
On to `O=C(Nc1ccccc1)n1[nH]c(=O)n(-c2ccccc2)c1=O`, for which the TGI in the assay with BT-549 breast, with PC-3 prostate, with SR leukemia, in the assay with ACHN renal, in the assay on SF-268 CNS and in the assay with SK-MEL-2 melanoma was more than 100 µM in each case. In addition, the TGI in the assay with UACC-257 melanoma, in the assay with SW-620 colon, in the assay with RPMI-8226 leukemia, in the assay on A549 NSCLC, in the assay with OVCAR-4 ovarian and with KM12 colon was more than 100 µM in each case. In addition, the TGI in the assay with DU-145 prostate, in the assay with OVCAR-8 ovarian and in the assay with HCT-116 colon was more than 100 µM each time.
As to `C=CC[C@@]1([C@H](C=C)COCc2ccc(OC)cc2)CC[C@]2(C)OC(C)(C)[C@@H](c3ccccc3)N2C1=S`, the TGI in the assay with BT-549 breast, in the assay on PC-3 prostate, in the assay on OVCAR-5 ovarian, in the assay on SR leukemia, with ACHN renal and in the assay with SF-268 CNS was more than 100 µM in each case. The TGI was more than 100 µM with OVCAR-3 ovarian; 62.3 µM in the assay on SK-MEL-2 melanoma; more than 100 µM with UACC-257 melanoma; more than 100 µM in the assay with SW-620 colon; more than 100 µM in the assay on RPMI-8226 leukemia; more than 100 µM in the assay with A549 NSCLC. The TGI with OVCAR-4 ovarian, in the assay on KM12 colon, in the assay with DU-145 prostate, in the assay on OVCAR-8 ovarian and in the assay on HCT-116 colon was more than 100 µM in each case.
Regarding `COc1cccc(N2C(=O)/C(=C\c3ccccc3)SC2c2cc(OC)c(OC)c(OC)c2)c1` (stereo unspecified), the TGI in the assay on BT-549 breast, with PC-3 prostate, in the assay with OVCAR-5 ovarian, in the assay on SR leukemia, in the assay on ACHN renal and in the assay with IGROV1 ovarian was more than 100 µM in each case. Moreover, the TGI with SF-268 CNS, with SK-MEL-2 melanoma, in the assay on UACC-257 melanoma, in the assay on RPMI-8226 leukemia, in the assay with A549 NSCLC and in the assay with OVCAR-4 ovarian was more than 100 µM each time. Also, the TGI in the assay on KM12 colon, with DU-145 prostate, in the assay on OVCAR-8 ovarian and in the assay on HCT-116 colon was more than 100 µM each time.
Consider `O=c1n(-c2ccccc2)c(=O)n2n1C1Cc3ccccc3C12` (stereo unspecified), for which the TGI in the assay on BT-549 breast, with PC-3 prostate, with OVCAR-5 ovarian, with SR leukemia, in the assay with ACHN renal and with IGROV1 ovarian was more than 100 µM throughout. Also, the TGI in the assay on SF-268 CNS, in the assay with OVCAR-3 ovarian, in the assay with SK-MEL-2 melanoma, with UACC-257 melanoma, in the assay on SW-620 colon and in the assay with RPMI-8226 leukemia was more than 100 µM throughout. In addition, the TGI in the assay on A549 NSCLC, in the assay on KM12 colon, in the assay with DU-145 prostate, in the assay on OVCAR-8 ovarian and in the assay on HCT-116 colon was more than 100 µM each time.
As to `Nc1[nH]c(=S)c2c(N)n[nH]c2c1C(=O)Nc1ccccc1`, the TGI in the assay on BT-549 breast, in the assay on PC-3 prostate, in the assay on OVCAR-5 ovarian, with SR leukemia, in the assay with IGROV1 ovarian and in the assay with SF-268 CNS was more than 100 µM each time. Further, the TGI with OVCAR-3 ovarian, in the assay on SK-MEL-2 melanoma, with UACC-257 melanoma, with SW-620 colon, with RPMI-8226 leukemia and with A549 NSCLC was more than 100 µM each time. Besides, the TGI in the assay with OVCAR-4 ovarian, in the assay on KM12 colon, in the assay on DU-145 prostate, in the assay with OVCAR-8 ovarian and with HCT-116 colon was more than 100 µM throughout.
